In series [1] the test system is Raynaud's Phenomenon (RP) attacks in participants with SSc-RP. Description: Average duration of weekly RP attacks (symptomatic / all attacks), patient diary, Phase 2a Part A. The note with it: for Average Duration of Weekly RP Attacks (All Attacks), Baseline, Mean / Average Duration of Weekly RP Attacks (All Attacks), Baseline, Median / Average Duration of Weekly RP Attacks (All Attacks), Average Duration, Mean / Average Duration of Weekly RP Attacks (All Attacks), Average Duration, Median: ITT Population-Part A; for Average Duration of Weekly RP Attacks (All Attacks), Baseline, Mean / Average Duration of Weekly RP Attacks (All Attacks), Baseline, Median: last 7 days of screening period, before dosing; for Average Duration of Weekly RP Attacks (All Attacks), Average Duration, Mean / Average Duration of Weekly RP Attacks (All Attacks), Average Duration, Median: last 7 days of the dosing period. The format is in vivo, human. The text has this: (§1) The Sponsor-developed participant-informed E-Diary has been and will be used in this study to record data. Participants have been or will be required to keep and fill the E-Diary daily as delineated in the SoAs ((FIG. 2 and FIG. 3A and/or FIG. 3B). • The relevant metrics measured by this tool daily are: • Study medication • SSc-RP symptoms (Reporting an attack including duration of attack) • Severity of the attack considering all symptoms of the attack e.g. tingling, numbness, pain, color changes (VAS 0-10 cm scale) • Participant's location at the time of the attack (inside home/outside home) • Selecting symptoms experienced during the attack (tingling, numbness, pain, color changes, other) • Pain rating during the attack (11-point Likert scale) • The RCS based on how much difficulty participants had with Raynaud's today, how many attacks the participant had, and how long they lasted. Participants will also be asked to consider how much pain, numbness, or other symptoms the Raynaud's caused in fingers (including painful sores), and how much the Raynaud's alone affected the use of hands today (VAS 0-10 cm scale). • The relevant metrics measured by this tool at the in-clinic visit (once in a Dosing Period) are: • Digital ulcer severity (VAS 0-10 cm scale)—Applicable only if participant has digital ulcers. • Scleroderma Health Assessment Questionnaire which includes Raynaud's VAS measuring participant quality of life over the past • Note: Digital ulcer severity (VAS 0-10 cm scale) and SHAQ scale can also be done on paper in-clinic, if necessary. Also, external temperature will be a feed into the E-Diary database based on participant's location.
The absolute change in average duration of weekly RP attacks from baseline to the end of each dosing period was and will be a secondary outcome variable. The sponsor-developed participant-informed diary was and will be used to record data. Average duration of weekly RP attacks is defined as the total duration of RP attacks divided by total number of RP attacks within the last 7 days of each dosing period. Total duration of RP attacks during the last 7 days of screening period divided by the total number of RP attacks will be used as baseline for the analysis of all periods. The variable will be calculated similar to frequency data as before.
The following data was actually obtained in accordance with the protocol and plan delineated in Examples 1 and 2. The accompanying data involved 11 patients out of the planned 76 patient study. The study was done in patients with scleroderma (systemic sclerosis) who had relatively frequent Raynaud symptoms as they needed to average at least one attack per day during a screening period of up to two weeks. In this first phase of this double-blind placebo-controlled, prospective randomized study, patients were treated in parallel and after meeting study criteria were randomized to receive either placebo, cilnidipine 10 mg daily, cilnidipine 20 mg daily, tadalafil 5 mg daily, cilnidipine 10 mg plus 5 mg of tadalafil, or cilnidipine 20 mg plus 5 mg of tadalafil.

The target of the next series is Nav 1.7 sodium channel (Homo sapiens, UniProt Q15858). As to conditions: see WO 2021/178903; cited from earlier work.
Series [2] has as its system Raynaud's Phenomenon (RP) attacks in participants with SSc-RP. In words: Frequency of weekly RP attacks (symptomatic attacks / all attacks), patient diary, Phase 2a Part A. The format is in vivo, human. As to the method: A randomized, placebo-controlled phase 2a study was performed and is in progress to assess the safety and efficacy of cilnidipine (10 mg and 20 mg) alone and in combination with 5 mg tadalafil, in participants with diagnosis of secondary Raynaud's disease.
Part A-Double-blind, Placebo-controlled, Parallel-group, Dose selection, will assess the safety and efficacy of two doses of cilnidipine (10 mg and 20 mg), alone and in combination with tadalafil. A total of 36 participants will be randomized to one of six pre-specified treatment arms. See Example 3 for data obtained in this phase of the study thus far, on 11 participants.
The Sponsor-developed participant-informed E-Diary has been and will be used in this study to record data. […]

The conditions of series [3]: in vivo; cited from earlier work.
The test system of series [4] is Raynaud's Phenomenon (RP) attacks in participants with SSc-RP. In words: Average severity of weekly RP attacks (VAS 0-10; symptomatic / all attacks), patient diary, Phase 2a Part A. It counts as in vivo, human. As to conditions: for Average Severity of Weekly Symptomatic RP Attacks, Mean: Pooled Cilnidipine 20 mg and Cilnidipine 20 mg + Tadalafil 5 mg, severity (0-10), ITT Population - Part A.
Excerpt: as §1
The absolute change in average severity of weekly RP attacks (VAS 0-10 cm scale) from baseline to the end of each Dosing Period was and will be a secondary outcome variable. The sponsor-developed participant-informed diary will be used to record data. […] The variable will be calculated similar to frequency data as before. […]

Where [5] appears, read: by Baseline RCS, second subgroup (r96-r180, RCS category not given).
[6] abbreviates: by Baseline RCS, first subgroup (RCS category not given).

Sequence of Nav 1.7 sodium channel (Q15858 whole entry): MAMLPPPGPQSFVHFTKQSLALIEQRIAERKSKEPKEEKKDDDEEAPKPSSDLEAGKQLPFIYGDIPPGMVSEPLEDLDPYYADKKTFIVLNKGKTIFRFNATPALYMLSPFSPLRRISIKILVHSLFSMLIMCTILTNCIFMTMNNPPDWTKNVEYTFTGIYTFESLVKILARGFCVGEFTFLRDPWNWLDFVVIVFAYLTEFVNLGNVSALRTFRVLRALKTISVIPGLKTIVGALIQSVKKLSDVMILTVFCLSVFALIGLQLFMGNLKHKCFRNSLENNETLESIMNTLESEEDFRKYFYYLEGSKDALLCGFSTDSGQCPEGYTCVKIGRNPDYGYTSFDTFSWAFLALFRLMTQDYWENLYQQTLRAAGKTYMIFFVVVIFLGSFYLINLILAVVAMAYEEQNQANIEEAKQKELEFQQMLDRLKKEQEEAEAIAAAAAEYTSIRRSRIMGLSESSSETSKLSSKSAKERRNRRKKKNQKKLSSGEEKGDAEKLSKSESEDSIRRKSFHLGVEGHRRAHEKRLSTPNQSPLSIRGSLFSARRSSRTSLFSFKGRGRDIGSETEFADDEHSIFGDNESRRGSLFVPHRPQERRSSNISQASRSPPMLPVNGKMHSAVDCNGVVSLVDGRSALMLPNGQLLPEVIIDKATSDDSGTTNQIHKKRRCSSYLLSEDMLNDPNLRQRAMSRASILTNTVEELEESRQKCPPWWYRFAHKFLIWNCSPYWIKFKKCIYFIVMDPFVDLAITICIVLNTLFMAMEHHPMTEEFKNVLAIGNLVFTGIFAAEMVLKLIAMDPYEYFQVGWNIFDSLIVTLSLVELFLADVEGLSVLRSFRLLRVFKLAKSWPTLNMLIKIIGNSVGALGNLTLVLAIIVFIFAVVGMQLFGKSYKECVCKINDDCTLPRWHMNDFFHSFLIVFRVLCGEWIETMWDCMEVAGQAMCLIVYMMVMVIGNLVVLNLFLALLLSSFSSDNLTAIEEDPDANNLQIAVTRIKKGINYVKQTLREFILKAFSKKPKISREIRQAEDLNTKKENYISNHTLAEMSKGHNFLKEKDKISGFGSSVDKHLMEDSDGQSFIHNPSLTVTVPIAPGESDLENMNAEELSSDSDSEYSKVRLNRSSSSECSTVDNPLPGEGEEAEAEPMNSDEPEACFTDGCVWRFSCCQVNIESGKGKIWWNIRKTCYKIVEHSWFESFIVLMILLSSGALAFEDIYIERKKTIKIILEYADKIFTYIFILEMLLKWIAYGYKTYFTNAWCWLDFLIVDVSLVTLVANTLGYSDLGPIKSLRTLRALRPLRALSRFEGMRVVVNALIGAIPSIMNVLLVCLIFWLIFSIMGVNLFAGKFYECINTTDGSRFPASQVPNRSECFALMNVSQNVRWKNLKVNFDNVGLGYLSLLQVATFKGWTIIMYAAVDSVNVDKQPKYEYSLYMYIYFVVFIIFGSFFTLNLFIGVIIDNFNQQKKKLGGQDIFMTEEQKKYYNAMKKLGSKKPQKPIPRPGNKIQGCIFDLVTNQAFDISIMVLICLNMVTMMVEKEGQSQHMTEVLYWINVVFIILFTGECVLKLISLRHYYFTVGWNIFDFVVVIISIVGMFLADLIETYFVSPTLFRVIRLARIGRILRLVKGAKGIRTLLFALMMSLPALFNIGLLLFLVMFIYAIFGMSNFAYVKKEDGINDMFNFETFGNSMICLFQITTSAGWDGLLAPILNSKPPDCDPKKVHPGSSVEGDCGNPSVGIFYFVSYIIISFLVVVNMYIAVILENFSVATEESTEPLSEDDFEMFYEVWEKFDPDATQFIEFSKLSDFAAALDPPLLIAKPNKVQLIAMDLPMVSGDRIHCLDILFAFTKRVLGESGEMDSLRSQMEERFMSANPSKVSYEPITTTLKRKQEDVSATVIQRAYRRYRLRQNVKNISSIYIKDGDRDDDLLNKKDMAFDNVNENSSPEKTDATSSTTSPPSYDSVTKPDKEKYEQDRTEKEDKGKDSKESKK

With `CN1CC(=O)N2[C@H](c3ccc4c(c3)OCO4)c3[nH]c4ccccc4c3C[C@@H]2C1=O` [Tadalafil 5 mg], in series [1] (Excluding Outliers), the “Average Duration of Weekly RP Attacks (All Attacks), Baseline, Mean” value (from here on “Average Duration … Baseline, Mean”) was 10.92 min and the “Average Duration of Weekly RP Attacks (All Attacks), Baseline, Median” value (“Average Duration … Baseline, Median” for short) was 10.92 min. In series [1] (setting [5]), the “Average Duration … Baseline, Mean” value was determined as 320.46 min and the “Average Duration … Baseline, Median” value turned out to be 320.46 min.

For `COCCOC(=O)C1=C(C)NC(C)=C(C(=O)OC/C=C/c2ccccc2)C1c1cccc([N+](=O)[O-])c1` (stereo not drawn) [Cilnidipine, cilnidipine, reference compound], the “activity against the Nav 1.7 sodium channel” value on Nav 1.7 sodium channel is “has activity”. The “patients in whom average frequency of Raynaud's attacks decreased more than 25%” value in series [2] (all cilnidipine and cilnidipine plus tadalafil treated patients together (n=7)) is 6 of 7. In addition, the “change in weekly frequency of Raynaud attacks (in words)” value in series [2] (cilnidipine and cilnidipine plus tadalafil treated patients (n=7), tadalafil alone, milder and more severe disease) is “decrease”. For the same compound, in series [1] (cilnidipine or cilnidipine plus tadalafil (n=7), tadalafil monotherapy (n=2)), the “change in duration of Raynaud attacks (in words)” value was “decrease greater than that seen in placebo treated patients”. For the same compound, the “Tmax (time to achieve maximal plasma concentrations)” value in series [3] is 2 h. Also, the “Average Severity of Weekly Symptomatic RP Attacks, Mean” value in series [4] (Excluding Outliers) and in series [4] was 3.40 in each case. Besides, the “change in severity of attacks (in words)” value in series [4] (cilnidipine monotherapy (n=3), cilnidipine plus tadalafil (n=4) vs tadalafil monotherapy (n=2)) is 20 mg reducing severity more than 10 mg.

Consider `COCCOC(=O)C1=C(C)NC(C)=C(C(=O)OC/C=C/c2ccccc2)C1c1cccc([N+](=O)[O-])c1` (stereo not drawn) [Pooled Cilnidipine], for which, in series [1] (Excluding Outliers), the “Average Duration … Baseline, Mean” value came to 25.21 min; the “Average Duration … Baseline, Median” value turned out to be 25.00 min; the “Average Duration of Weekly RP Attacks (All Attacks), Average Duration, Mean” value is 21.66 min; the “Average Duration of Weekly RP Attacks (All Attacks), Average Duration, Median” value stood at 30.45 min. Also, in series [1] (setting [6]), the “Average Duration … Baseline, Mean” value amounted to 25.21 min; the “Average Duration … Baseline, Median” value is 25.00 min; the “Average Duration of Weekly RP Attacks (All Attacks), Average Duration, Mean” value came to 21.66 min; the “Average Duration of Weekly RP Attacks (All Attacks), Average Duration, Median” value amounted to 30.45 min.

Regarding `CCOC(=O)C1=C(COCCN)NC(C)=C(C(=O)OC)C1c1ccccc1Cl` (stereo not drawn) [amlodipine], in series [3], the “time to reach maximal plasma concentrations” value is 10 h.

With `COCCOC(=O)C1=C(C)NC(C)=C(C(=O)OC/C=C/c2ccccc2)C1c1cccc([N+](=O)[O-])c1` (stereo not drawn) [Cilnidipine 20 mg], the “Average Duration … Baseline, Mean” value in series [1] (Excluding Outliers), in series [1] and in series [1] (setting [6]) was 17.81 min throughout. For the same compound, the “Average Duration … Baseline, Median” value in series [1] (Excluding Outliers), in series [1] and in series [1] (setting [6]) was 17.81 min in each case.

As for `COCCOC(=O)C1=C(C)NC(C)=C(C(=O)OC/C=C/c2ccccc2)C1c1cccc([N+](=O)[O-])c1` (stereo not drawn) [Cilnidipine 10 mg], the “Average Duration … Baseline, Mean” value in series [1] (Excluding Outliers), in series [1] and in series [1] (setting [6]) was 40.00 min in each case. Further, the “Average Duration … Baseline, Median” value in series [1] (Excluding Outliers), in series [1] and in series [1] (setting [6]) was 40.00 min each time.
